Consider one compound from article PMC10808224, “Lsr2 acts as a cyclic di-GMP receptor that promotes keto-mycolic acid synthesis and biofilm formation in mycobacteria” (Nature Communications, 2024).

pKd: −log10 of the molar value.

The test addresses T1, Lsr2Msm (Mycolicibacterium smegmatis, UniProt A0R576).
T1 construct: gene MSMEG_6092; recombinant, E. coli BL21 (DE3), modified pET28a, C-terminal His-tag, Ni-NTA purified
Kind of test: isothermal titration calorimetry. It is filed as binding.

As for `Nc1nc2c(ncn2[C@@H]2O[C@@H]3CO[P@](=O)(O)O[C@H]4[C@@H](O)[C@H](n5cnc6c(=O)[nH]c(N)nc65)O[C@@H]4CO[P@](=O)(O)O[C@H]3[C@H]2O)c(=O)[nH]1` [c-di-GMP], the pKd was 7.02.
